Measured values from patent publication US20250090477A1, “TRANSDERMAL PATCH PROVIDING IMPROVED PERMEABILITY AND COMPOSITION” (HydraPatch Inc., priority 2019, published 2025).

Experiment: effect of including leucine in the patch formula on appetite levels
Format: in vivo
Conditions: inclusion of leucine in the formula of the adhesive matrix; found experimentally, no method or data given
From the text: In an exemplary embodiment, adhesive matrix 130 may further include an anti-inflammatory. While dimethyl sulfoxide and menthol may in and of themselves act as anti-inflammatories, additional ingredients acting as dedicated anti-inflammatories may be added. For the purposes of this specification, “anti-inflammatory” is used to mean any medication, compound, or ingredient recognized by the FDA as useful for anti-inflammatory purposes. Yet further, adhesive matrix 130 may include amino acids. Leucine is an exemplary amino acid which may be incorporated into the formula. Leucine may function in the patch to synthesize sterols, and may also act to regulate blood pressure, energy levels, and hormone secretion. […] Adhesive matrix 130 may further comprises glycerin. Glycerin may act as a plasticizer and humectant to preserve the flexibility and formulaic integrity of adhesive matrix 130, and may also provide additional benefits of relieving skin irritation and reducing interference with skin oils when transdermal patch 100 is placed in contact with skin.

Question: Which appetite levels does the source give for `CC(C)C[C@H](N)C(=O)O` [leucine, Leucine] here?
Answer: reduce appetite levels
